{"source": "patent EP0639584B1", "about": "“Preparation and screening of highly diverse peptide libraries for binding activity” (INTERPHARM LABORATORIES LTD., priority 1993, dated 1995)", "key": {"[1]": {"target": "T1, TBP1 (Homo sapiens, UniProt P19438)", "T1 construct": "soluble extracellular domain of TNF receptor type 1, p55; host or cells: CHO", "T1 sequence (P19438 41-201 limits assumed)": "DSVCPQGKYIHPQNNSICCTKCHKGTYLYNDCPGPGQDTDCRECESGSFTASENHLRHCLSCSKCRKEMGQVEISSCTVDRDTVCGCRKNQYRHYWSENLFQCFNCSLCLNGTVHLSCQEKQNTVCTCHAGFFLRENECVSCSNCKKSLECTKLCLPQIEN", "test": "Binding of TBP1 to peptides on beads, ELISA with soluble substrate (pNPP, O.D. at 405 nm)"}, "[2]": {"system": "rabbit immunoglobulins", "test": "Immunostaining of library beads containing N-DSer-DLys-LVal to verify specificity", "format": "binding", "procedure": "7. First screening of the polystyrene peptide library with TBP1. One quarter (400 µl packed) of the total number of beads were blocked with 5% FBS in PBS (1 ml for 45 minutes), to avoid nonspecific binding, and incubated with TBP1 (1 ml at a concentration of 10µg/ml in FBS/PBS for 45 minutes) followed by polyclonal rabbit anti-TBP1 (1:500 in FBS/PBS, 1 ml for 1 hour) and alkaline phosphatase conjugated goat anti-rabbit Ig antibodies (1:2000 in FBS/PBS, 1 ml for 40 minutes). The signal was generated by BCIP/NBT substrate (12 ml in 9 cm petri dish; further details as in 5 above). More than 50 stained beads were selected and three of them were subjected to sequencing. […] The BCIP/NBT substrate that we used in order to stain the beads could not be destained by any treatment that we tried (organic solvents, urea, SDS, NaOH, boiling, sonication and combinations of all of the above), and we therefore decided to use another alkaline phosphatase substrate which could be readily destained. […]"}, "[3]": {"system": "Immunoglobulins from other animal species and from humans", "test": "Immunostaining of library beads containing N-DSer-DLys-LVal to verify specificity, other immunoglobulins", "format": "binding"}, "[4]": {"system": "Monoclonal antibody to human β-endorphin", "test": "Staining of beads with anti-endorphin McAb clone 3-E7 (alkaline phosphatase/BCIP)", "format": "binding, mouse", "conditions": "antibody 200 ng/ml, BCIP 2 hours", "procedure": "Staining of the beads was performed using the following steps (all incubation steps were performed with continuous mixing of the beads): • a. Washes of the beads with wash buffer. • b. Incubation of the beads with blocking buffer for 45 minutes to block non-specific interactions. • c. Incubation of the beads with the monoclonal antibody to human β-endorphin diluted to 200 ng/ml in blocking buffer for 40 minutes. • d. Six washes with wash buffer. • e. Incubation of the beads with the polyclonal rabbit antibodies against mouse IgG conjugated with alkaline phosphatase, diluted 1:1000 in blocking buffer for 40 minutes. • f. Six washes with wash buffer and one wash with Tris (25mM), NaC1 (125 mM), Tween (0.1%). • g. Incubation of the beads with BCIP diluted to 500 ug/ml in 0.1M Tris pH 9.0, for 2 hours. • h. Two washes with H2O, transfer of the beads to petri dishes and observation for blue stained beads (using a stereomicroscope)."}}}
{"substance": "N-DAla-DGlu-LMet", "values": [{"measurement": "OD", "setting": "[1]; relative to background, peptide on around 100,000 beads, soluble substrate", "value": "ten times higher than background"}, {"measurement": "OD in presence of the TBP1", "setting": "[1]; relative to the antibodies only", "value": "four times higher"}, {"measurement": "response with antibodies alone", "setting": "[1]; without TBP1", "value": "lack of response"}]}
{"substance": "N-DSer-DLys-LVal", "values": [{"measurement": "recognition of rabbit immunoglobulins", "setting": "[2]; from both rabbit anti-TBP1 antiserum and normal rabbit serum", "value": "specifically recognized"}, {"measurement": "Immunostaining performed with and without TBP1", "setting": "[2]; surface staining", "value": "specificity to the antibodies"}, {"measurement": "recognition of immunoglobulins from other animal species and from humans", "setting": "[3]", "value": "not recognized"}]}
{"substance": "n-His-Pro-Tyr-Pro-Pro (HPYPP; on TentaGel beads; printed: His-Pro-Tyr-Pro-Pro) [Model HPYPP]", "values": [{"measurement": "Number of Blue-stained Beads", "setting": "[4]", "value": "none of the beads"}]}
{"substance": "n-Tyr-Gly-Gly-Phe-Leu [Model YGGFL]", "values": [{"measurement": "Number of Blue-stained Beads", "setting": "[4]", "value": "most of the beads"}]}
